From patent US20100041089A1, “IMPROVED METHOD FOR DETECTING CHEMICAL […]” (priority 2006, published 2010)

System: yeast genes (expressed mRNA)
Test: DNA chip measurement of expressed mRNA of yeast genes after culture with a toxic chemical substance
Type: cell-based, Saccharomyces cerevisiae S288C
Settings: for level of expressed mRNA in the presence of chemical substance / level in the absence of chemical substance: cultured two hours with the chemical substance; for The level of expressed mRNA in the presence of chemical substance/The level of expressed mRNA in the absence of chemical substance: cultured two hours with substance
Method in brief: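 Expression is given as treated/untreated fluorescence ratio on a whole-genome yeast DNA chip, a ratio of two or more being significant. Log-phase S288C cultures in YPD at 25 °C received the chemical for 2 h at a dose that slows growth without killing. mRNA was reverse-transcribed with Cy3- or Cy5-dUTP.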

For Na2As [(1)], the “The level of expressed mRNA in the presence of chemical substance/The level of expressed mRNA in the absence of chemical substance, yeast gene YBR036C” value (gene YBR036C, Metabolism protein genes, DNA chip fluorescence ratio) was 0.8, the “The level of expressed mRNA in the presence of chemical substance/The level of expressed mRNA in the absence of chemical substance, yeast gene YBR298C” value (gene YBR298C, Metabolism protein genes, DNA chip fluorescence ratio) was 1.1 and the “The level of expressed mRNA in the presence of chemical substance/The level of expressed mRNA in the absence of chemical substance, yeast gene YDL067C” value (gene YDL067C (mitochondria-located protein gene), yeast cultured two hours with chemical substance, DNA chip fluorescence ratio to control) was 1.8. The “The level of expressed mRNA in the presence of chemical substance/The level of expressed mRNA in the absence of chemical substance, yeast gene YDL078C” value (gene YDL078C, Metabolism protein genes, DNA chip fluorescence ratio) was 0.7, the “The level of expressed mRNA in the presence of chemical substance/The level of expressed mRNA in the absence of chemical substance, yeast gene YDL215C” value (gene YDL215C, Metabolism protein genes, DNA chip fluorescence ratio) was 1.0 and the “The level of expressed mRNA in the presence of chemical substance/The level of expressed mRNA in the absence of chemical substance, yeast gene YDR079W” value (gene YDR079W (mitochondria-located protein gene), yeast cultured two hours with chemical substance, DNA chip fluorescence ratio to control) was 1.3. For the same substance, the “The level of expressed mRNA in the presence of chemical substance/The level of expressed mRNA in the absence of chemical substance, yeast gene YDR297W” value (gene YDR297W, Metabolism protein genes, DNA chip fluorescence ratio) was 1.5, the “The level of expressed mRNA in the presence of chemical substance/The level of expressed mRNA in the absence of chemical substance, yeast gene YDR387C” value (gene YDR387C, Metabolism protein genes, DNA chip fluorescence ratio) was 0.8 and the “The level of expressed mRNA in the presence of chemical substance/The level of expressed mRNA in the absence of chemical substance, yeast gene YGL035C” value (gene YGL035C, Metabolism protein genes, DNA chip fluorescence ratio) was 0.7. For the same substance, the “The level of expressed mRNA in the presence of chemical substance/The level of expressed mRNA in the absence of chemical substance, yeast gene YGR062C” value (gene YGR062C (mitochondria-located protein gene), yeast cultured two hours with chemical substance, DNA chip fluorescence ratio to control) was 0.9, the “The level of expressed mRNA in the presence of chemical substance/The level of expressed mRNA in the absence of chemical substance, yeast gene YGR287C” value (gene YGR287C, Metabolism protein genes, DNA chip fluorescence ratio) was 1.3 and the “The level of expressed mRNA in the presence of chemical substance/The level of expressed mRNA in the absence of chemical substance, yeast gene YJL070C” value (gene YJL070C, Metabolism protein genes, DNA chip fluorescence ratio) was 1.3. The “The level of expressed mRNA in the presence of chemical substance/The level of expressed mRNA in the absence of chemical substance, yeast gene YJL096W” value (gene YJL096W (mitochondria-located protein gene), yeast cultured two hours with chemical substance, DNA chip fluorescence ratio to control) was 1.0, the “The level of expressed mRNA in the presence of chemical substance/The level of expressed mRNA in the absence of chemical substance, yeast gene YJL180C” value (gene YJL180C (mitochondria-located protein gene), yeast cultured two hours with chemical substance, DNA chip fluorescence ratio to control) was 0.9 and the “The level of expressed mRNA in the presence of chemical substance/The level of expressed mRNA in the absence of chemical substance, yeast gene YKR009C” value (gene YKR009C, Metabolism protein genes, DNA chip fluorescence ratio) was 1.0. For the same substance, the “The level of expressed mRNA in the presence of chemical substance/The level of expressed mRNA in the absence of chemical substance, yeast gene YLR295C” value (gene YLR295C (mitochondria-located protein gene), yeast cultured two hours with chemical substance, DNA chip fluorescence ratio to control) was 1.4, the “The level of expressed mRNA in the presence of chemical substance/The level of expressed mRNA in the absence of chemical substance, yeast gene YLR351C” value (gene YLR351C, Metabolism protein genes, DNA chip fluorescence ratio) was 1.0 and the “The level of expressed mRNA in the presence of chemical substance/The level of expressed mRNA in the absence of chemical substance, yeast gene YLR375W” value (gene YLR375W, Metabolism protein genes, DNA chip fluorescence ratio) was 0.9. For the same substance, the “The level of expressed mRNA in the presence of chemical substance/The level of expressed mRNA in the absence of chemical substance, yeast gene YMR023C” value (gene YMR023C (mitochondria-located protein gene), yeast cultured two hours with chemical substance, DNA chip fluorescence ratio to control) was 1.4, the “The level of expressed mRNA in the presence of chemical substance/The level of expressed mRNA in the absence of chemical substance, yeast gene YMR267W” value (gene YMR267W (mitochondria-located protein gene), yeast cultured two hours with chemical substance, DNA chip fluorescence ratio to control) was 0.8 and the “The level of expressed mRNA in the presence of chemical substance/The level of expressed mRNA in the absence of chemical substance, yeast gene YMR267W” value (gene YMR267W, Metabolism protein genes, DNA chip fluorescence ratio) was 0.8. The “The level of expressed mRNA in the presence of chemical substance/The level of expressed mRNA in the absence of chemical substance, yeast gene YMR278W” value (gene YMR278W, Metabolism protein genes, DNA chip fluorescence ratio) was 0.7, the “The level of expressed mRNA in the presence of chemical substance/The level of expressed mRNA in the absence of chemical substance, yeast gene YMR293C” value (gene YMR293C, Metabolism protein genes, DNA chip fluorescence ratio) was 0.9 and the “The level of expressed mRNA in the presence of chemical substance/The level of expressed mRNA in the absence of chemical substance, yeast gene YNL073W” value (gene YNL073W (mitochondria-located protein gene), yeast cultured two hours with chemical substance, DNA chip fluorescence ratio to control) was 0.8. The “The level of expressed mRNA in the presence of chemical substance/The level of expressed mRNA in the absence of chemical substance, yeast gene YNR072W” value (gene YNR072W, Metabolism protein genes, DNA chip fluorescence ratio) was 1.1, the “The level of expressed mRNA in the presence of chemical substance/The level of expressed mRNA in the absence of chemical substance, yeast gene YOL096C” value (gene YOL096C, Metabolism protein genes, DNA chip fluorescence ratio) was 1.1 and the “The level of expressed mRNA in the presence of chemical substance/The level of expressed mRNA in the absence of chemical substance, yeast gene YOR180C” value (gene YOR180C, Metabolism protein genes, DNA chip fluorescence ratio) was 0.8. For the same substance, the “The level of expressed mRNA in the presence of chemical substance/The level of expressed mRNA in the absence of chemical substance, yeast gene YOR316C” value (gene YOR316C (mitochondria-located protein gene), yeast cultured two hours with chemical substance, DNA chip fluorescence ratio to control) was 0.7, the “The level of expressed mRNA in the presence of chemical substance/The level of expressed mRNA in the absence of chemical substance, yeast gene YOR363C” value (gene YOR363C, Metabolism protein genes, DNA chip fluorescence ratio) was 0.8 and the “The level of expressed mRNA in the presence of chemical substance/The level of expressed mRNA in the absence of chemical substance, yeast gene YPL040C” value (gene YPL040C (mitochondria-located protein gene), yeast cultured two hours with chemical substance, DNA chip fluorescence ratio to control) was 1.1. For the same substance, the “The level of expressed mRNA in the presence of chemical substance/The level of expressed mRNA in the absence of chemical substance, yeast gene YPL134C” value (gene YPL134C (mitochondria-located protein gene), yeast cultured two hours with chemical substance, DNA chip fluorescence ratio to control) was 1.5, the “The level of expressed mRNA in the presence of chemical substance/The level of expressed mRNA in the absence of chemical substance, yeast gene YPR184W” value (gene YPR184W, Metabolism protein genes, DNA chip fluorescence ratio) was 1.2 and the “level of expressed mRNA in the presence of chemical substance / level in the absence of chemical substance” value (yeast gene YAL018C) was 2.0. The “The level of expressed mRNA in the presence of chemical substance/The level of expressed mRNA in the absence of chemical substance” value (yeast gene YAL053W) was 0.9, the “level of expressed mRNA in the presence of chemical substance / level in the absence of chemical substance” value (yeast gene YAR047C) was 1.1 and the “level of expressed mRNA in the presence of chemical substance / level in the absence of chemical substance” value (yeast gene YAR064W) was 2.1. For the same substance, the “level of expressed mRNA in the presence of chemical substance / level in the absence of chemical substance” value (yeast gene YBL044W) was 0.9, the “The level of expressed mRNA in the presence of chemical substance/The level of expressed mRNA in the absence of chemical substance” value (yeast gene YBL048W) was 2.0 and the “The level of expressed mRNA in the presence of chemical substance/The level of expressed mRNA in the absence of chemical substance” value (yeast gene YBL107C) was 1.4. For the same substance, the “level of expressed mRNA in the presence of chemical substance / level in the absence of chemical substance” value (yeast gene YBR012C) was 2.5, the “level of expressed mRNA in the presence of chemical substance / level in the absence of chemical substance” value (yeast gene YBR066C) was 1.9 and the “level of expressed mRNA in the presence of chemical substance / level in the absence of chemical substance” value (yeast gene YBR124W) was 0.9. For the same substance, the “level of expressed mRNA in the presence of chemical substance / level in the absence of chemical substance” value (yeast gene YBR162C) was 0.6, the “level of expressed mRNA in the presence of chemical substance / level in the absence of chemical substance” value (yeast gene YBR287W) was 1.7 and the “level of expressed mRNA in the presence of chemical substance / level in the absence of chemical substance” value (yeast gene YCL056C) was 1.3. For the same substance, the “level of expressed mRNA in the presence of chemical substance / level in the absence of chemical substance” value (yeast gene YCR007C) was 2.2, the “level of expressed mRNA in the presence of chemical substance / level in the absence of chemical substance” value (yeast gene YDL046W) was 1.2 and the “The level of expressed mRNA in the presence of chemical substance/The level of expressed mRNA in the absence of chemical substance” value (yeast gene YDL072C) was 1.3. For the same substance, the “The level of expressed mRNA in the presence of chemical substance/The level of expressed mRNA in the absence of chemical substance” value (yeast gene YDL204W) was 1.4, the “The level of expressed mRNA in the presence of chemical substance/The level of expressed mRNA in the absence of chemical substance” value (yeast gene YDL222C) was 0.9 and the “level of expressed mRNA in the presence of chemical substance / level in the absence of chemical substance” value (yeast gene YDR090C) was 0.9. The “level of expressed mRNA in the presence of chemical substance / level in the absence of chemical substance” value (yeast gene YDR128W) was 0.6.
